Laboratory results reported in US20060153912A1 (BASF Aktiengesellschaft, priority 2002, published 2006).

Tests used:
[1] = Color stability of 50% strength water/methanol solutions stirred at reflux (65° C.) in air, Gardner/Hazen color number
[2] = Color stability of 10% strength solutions in water/methanol (1:1), 7 h at 65° C., with and without stabilizer; assay type: physicochemical; settings: 10% strength solution in water/methanol (1:1), no additive
Protocol: The experiments took place under the following conditions: 10% strength solutions in water/methanol (1:1)—7 h at 65° C.

[3] = 50% choline ascorbate solution, additive 1% by weight, reaction time 4 h
[4] = 50% solution in 1:1 water/methanol, without additive, reaction time 0 h
[5] = 50% solution in 1:1 water/methanol, without additive, reaction time 1 h
[6] = 50% solution in 1:1 water/methanol, without additive, reaction time 7 h
[7] = 50% choline ascorbate solution, additive 1% by weight, reaction time 3 h
[8] = 50% choline ascorbate solution, additive 1% by weight, reaction time 5 h

With `OP(O)O` [Phosphorous acid] the “Color number Gardner” value [1, 3] was 0.7 and the “Color number Hazen” value [1, 3] was 163.

In the case of `OB(O)c1ccccc1` [Phenylboronic acid], the “Color number Gardner” value [1, 3] is reported as 2.7 and the “Color number Hazen” value [1, 3] is reported as 589.

For `C[N+](C)(C)CCO.O=C([O-])C(O)C(O)C(=O)O` (stereo not drawn) [Choline bitartrate], the “Color number Gardner” value [2] was 0.1, the “Color number Hazen” value [2] was 32 and the “Color number Gardner” value [1, 4] was 0.1. For the same compound, the “Color number Hazen” value [1, 4] was 27, the “Color number Gardner” value [1, 5] was 0.1 and the “Color number Hazen” value [1, 5] was 30. The “Color number Gardner” value [1, 6] was 0.1 and the “Color number Hazen” value [1, 6] was 28.

In the case of `CC(=O)N[C@@H](CS)C(=O)O` [N-Acetylcysteine], the “Color number Gardner” value [1, 3] is reported as 0.9 and the “Color number Hazen” value [1, 3] is reported as 162.

With `O=C(O)CCCC[C@@H](S)CCS` (racemic) [Dihydrolipoic acid] the “Color number Gardner” value [1, 3] was 0.2 and the “Color number Hazen” value [1, 3] was 53.

For `O=c1[nH]c(=O)c2[nH]c(=O)[nH]c2[nH]1` [Uric acid], the “Color number Gardner” value [1, 7] was 0.9, the “Color number Hazen” value [1, 7] was 162 and the “Color number Gardner” value [1, 8] was 1.4. For the same compound, the “Color number Hazen” value [1, 8] was 237.

In the case of `O=C1O[C@H]([C@@H](O)CO)C(O)=C1O` [L-(+)-Ascorbic acid], the “Color number Gardner” value [2] is reported as 0.1, the “Color number Hazen” value [2] is reported as 27 and the “Color number Gardner” value [1, 4] is reported as 0.1. For the same compound, the “Color number Hazen” value [1, 4] was 27, the “Color number Gardner” value [1, 5] was 0.1 and the “Color number Hazen” value [1, 5] was 31. For the same compound, the “Color number Gardner” value [1, 6] was 0.1 and the “Color number Hazen” value [1, 6] was 29.

For `C[N+](C)(C)CCO.[Cl-]` [Choline chloride], the “Color number Gardner” value [2] was 0.1 and the “Color number Hazen” value [2] was 35.

For `O=C1O[C@H]([C@@H](O)CO)C([O-])=C1O.[Na+]` [Sodium ascorbate], the “Color number Gardner” value [2] was 0.1, the “Color number Hazen” value [2] was 31 and the “Color number Gardner” value [1, 4] was 0.1. For the same compound, the “Color number Hazen” value [1, 4] was 26, the “Color number Gardner” value [1, 5] was 0.1 and the “Color number Hazen” value [1, 5] was 28. The “Color number Gardner” value [1, 6] was 0.1 and the “Color number Hazen” value [1, 6] was 31.

In the case of `N[C@@H](CCC(=O)N[C@@H](CS)C(=O)NCC(=O)O)C(=O)O` [Glutathione], the “Color number Gardner” value [1, 3] is reported as 0.4 and the “Color number Hazen” value [1, 3] is reported as 122.

For `N[C@@H](CS)C(=O)O` [Cysteine], the “Color number Gardner” value [1, 3] was 0.1 and the “Color number Hazen” value [1, 3] was 35.
